Assay results published in US12157746B2, “Tetrahydro-1H-pyrazino[2,1-a]isoindolylquinoline compounds for the treatment of autoimmune disease” (F. HOFFMANN-LA ROCHE AG, priority 2018, dated 2024).

Target: T1, human TLR7 (Homo sapiens, UniProt Q9NYK1)
T1 sequence (Q9NYK1 27-1049): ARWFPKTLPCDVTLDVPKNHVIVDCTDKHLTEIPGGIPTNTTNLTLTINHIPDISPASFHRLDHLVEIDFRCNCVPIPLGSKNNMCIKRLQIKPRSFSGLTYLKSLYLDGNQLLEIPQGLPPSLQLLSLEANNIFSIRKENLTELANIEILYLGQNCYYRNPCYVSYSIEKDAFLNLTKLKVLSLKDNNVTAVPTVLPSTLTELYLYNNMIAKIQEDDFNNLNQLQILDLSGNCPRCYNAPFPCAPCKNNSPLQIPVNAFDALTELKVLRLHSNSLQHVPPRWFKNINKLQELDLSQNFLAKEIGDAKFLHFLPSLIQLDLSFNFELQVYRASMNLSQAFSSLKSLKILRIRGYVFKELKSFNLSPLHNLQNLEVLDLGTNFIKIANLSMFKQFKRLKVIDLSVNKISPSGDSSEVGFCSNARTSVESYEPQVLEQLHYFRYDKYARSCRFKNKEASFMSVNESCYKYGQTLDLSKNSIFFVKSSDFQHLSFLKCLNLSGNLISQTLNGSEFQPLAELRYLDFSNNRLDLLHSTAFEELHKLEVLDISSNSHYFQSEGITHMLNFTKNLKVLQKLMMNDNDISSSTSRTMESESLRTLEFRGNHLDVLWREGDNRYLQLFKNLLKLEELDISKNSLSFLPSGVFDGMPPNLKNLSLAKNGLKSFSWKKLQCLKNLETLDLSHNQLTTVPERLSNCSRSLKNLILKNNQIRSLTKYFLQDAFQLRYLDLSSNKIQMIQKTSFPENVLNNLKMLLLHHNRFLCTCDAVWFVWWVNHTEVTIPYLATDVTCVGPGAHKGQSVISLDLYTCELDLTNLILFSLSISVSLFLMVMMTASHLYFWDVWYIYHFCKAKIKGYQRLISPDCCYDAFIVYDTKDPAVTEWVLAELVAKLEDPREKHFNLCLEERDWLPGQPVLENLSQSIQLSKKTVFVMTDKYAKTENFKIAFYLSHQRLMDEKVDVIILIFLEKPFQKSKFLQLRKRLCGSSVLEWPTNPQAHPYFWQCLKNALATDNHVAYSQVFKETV
Test: HEK293-Blue-hTLR-7 cells assay
Assay type: cell-based
Settings: HEK293-Blue-hTLR7 cells, R848 stimulation, 20 hrs, SEAP reporter; read-out: HEK/hTLR7 IC50
Procedure, shortened: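 HEK293-Blue-hTLR7 cells (NF-κB/AP-1-driven SEAP reporter) incubated with serially diluted compound (1% DMSO final) and R848 agonist for 20 h at 37 °C. Supernatant SEAP measured with QUANTI-Blue (2 h, 37 °C) by absorbance at 620-655 nm; antagonism seen as reduced reporter.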

| Structure (SMILES) | IC50 [nM] |
| --- | --- |
| C[C@@H]1CN(c2ccc(C(F)(F)F)c3nccnc23)C[C@@H]2c3ccc(N[C@H]4CNC[C@H]4F)cc3CN12 [Example 77, (4R,10bS)—N-[(3S,4R)-4-fluoropyrrolidin-3-yl]-4-methyl-2-[8-(trifluoromethyl)quinoxalin-5-yl]-3,4,6,10b-tetrahydro-1H-pyrazino[2,1-a]isoindol-8-amine] | 12.6 |
| C[C@@H]1CN(c2ccc(C#N)c3ncsc23)C[C@@H]2c3ccc(N[C@H]4CNC[C@H]4F)cc3CN12 [Example 78, 7-[(4R,10bS)-8-[[(3S,4R)-4-fluoropyrrolidin-3-yl]amino]-4-methyl-3,4,6,10b-tetrahydro-1H-pyrazino[2,1-a]isoindol-2-yl]-1,3-benzothiazole-4-carbonitrile] | 1.2 |
| C[C@@H]1CN(c2ccc(Cl)c3ncccc23)C[C@@H]2c3ccc(N[C@H]4CNC[C@H]4F)cc3CN12 [Example 79, (4R,10b)-2-(8-chloro-5-quinolyl)-N-[(3S,4R)-4-fluoropyrrolidin-3-yl]-4-methyl-3,4,6,10b-tetrahydro-1H-pyrazino[2,1-a]isoindol-8-amine] | 7.6 |
| C[C@@H]1CN(c2ccc(C#N)c3ncccc23)C[C@@H]2c3cccc(NCCN4CC[C@H](O)C4)c3CN12 [Example 80, 5-[(4R,10bS)-7-[2-[(3S)-3-hydroxypyrrolidin-1-yl]ethylamino]-4-methyl-3,4,6,10b-tetrahydro-1H-pyrazino[2,1-a]isoindol-2-yl]quinoline-8-carbonitrile] | 17.9 |
| C[C@@H]1CN(c2ccc(C#N)c3ncccc23)C[C@@H]2c3cccc(N[C@H]4CNC[C@H]4F)c3CN12 [Example 81, 5-[(4R,10bS)-7-[[(3S,4R)-4-fluoropyrrolidin-3-yl]amino]-4-methyl-3,4,6,10b-tetrahydro-1H-pyrazino[2,1-a]isoindol-2-yl]quinoline-8-carbonitrile] | 7.4 |
| C[C@@H]1CN(c2ccc(C#N)c3ncccc23)C[C@@H]2c3cc(F)c(N4C[C@H](N)[C@@](C)(O)C4)cc3CN12 [Example 83, 5-[(4R,10bS)-8-[(3S,4S)-4-amino-3-hydroxy-3-methyl-pyrrolidin-1-yl]-9-fluoro-4-methyl-3,4,6,10b-tetrahydro-1H-pyrazino[2,1-a]isoindol-2-yl]quinoline-8-carbonitrile] | 2.7 |
| C[C@@H]1CN(c2ccc(C#N)c3ncccc23)C[C@@H]2c3cc(F)c(N4CC5(CNC5)C4)cc3CN12 [Example 84, 5-[(4R,10bS)-8-(2,6-diazaspiro[3.3]heptan-2-yl)-9-fluoro-4-methyl-3,4,6,10b-tetrahydro-1H-pyrazino[2,1-a]isoindol-2-yl]quinoline-8-carbonitrile] | 2.6 |

Next, values leading:

| IC50 [nM] | Structure (SMILES) |
| --- | --- |
| 6.9 | C[C@@H]1CN(c2ccc(C#N)c3ncccc23)C[C@@H]2c3cc(F)c(N4CC5CNCC(C4)O5)cc3CN12 [Example 85, 5-[(4R,10bS)-9-fluoro-4-methyl-8-(9-oxa-3,7-diazabicyclo[3.3.1]nonan-3-yl)-3,4,6,10b-tetrahydro-1H-pyrazino[2,1-a]isoindol-2-yl]quinoline-8-carbonitrile] |
| 3.7 | C[C@@H]1CN(c2ccc(C#N)c3ncccc23)C[C@@H]2c3ccc(C(=O)N4CCC(C)(N)CC4)cc3CN12 [Example 88, 5-[(4R,10bS)-8-(4-amino-4-methyl-piperidine-1-carbonyl)-4-methyl-3,4,6,10b-tetrahydro-1H-pyrazino[2,1-a]isoindol-2-yl]quinoline-8-carbonitrile] |
| 2.9 | [2H]c1ccc2c(N3C[C@@H](C)N4Cc5cc(N6CC7(CNCCO7)C6)ccc5[C@H]4C3)ccc(C#N)c2n1 [Example 90, 5-[(4R,10bS)-4-methyl-8-(5-oxa-2,8-diazaspiro[3.5]nonan-2-yl)-3,4,6,10b-tetrahydro-1H-pyrazino[2,1-a]isoindol-2-yl]-2-deuterio-quinoline-8-carbonitrile] |
